According to US11850247B2, “Antiviral compounds” (REGENTS OF THE UNIVERSITY OF MINNESOTA, priority 2020, dated 2023):

Assays:
[1] = tested on: TZM-GFP cells; experiment: Cytotoxicity in TZM-GFP cells (XTT); assay type: cell-based; conditions: 50 μM compound
In short: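 TZM-GFP cells (1×10^4 per well) exposed continuously to increasing compound concentrations for 72 hours. Viable cells measured by XTT; CC50 from log(inhibitor) vs. normalized response-variable slope fit, averaged over at least two independent duplicate experiments.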

[2] = molecular target: covalently-crosslinked hexameric CA A14C/E45C/W184A/M185A (CA121) (Human immunodeficiency virus type 1 group M subtype B, UniProt P12493, A146C/E177C/M317A/W316A); experiment: Thermal shift assay (TSA), CA hexamer stability; assay type: binding, HIV-1; conditions: compound 20 μM, ΔTm=Tm−T0 vs DMSO
[3] = tested on: HIV-1; experiment: Anti-HIV-1 activity in TZM-GFP cells (viral LTR-activated GFP expression); assay type: cell-based; conditions: Human immunodeficiency virus 1, HIV-1 strain MOI=1, GFP positive cells counted after 48 hours
In short: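 TZM-GFP cells treated with increasing compound for 24 h, then infected with HIV-1 (MOI=1); EC50 based on inhibition of LTR-driven GFP expression versus DMSO controls. CC50 determined by XTT after 72 h continuous exposure in the same cells; duplicate, ≥2 independent experiments, variable-slope curve fit.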

[4] = Microsomal stability assay, human liver microsomes; assay type: in vitro ADME; conditions: human liver microsomes, 1 μM compound, NADPH; for HLM half-life (t1/2): without Cobicistat; for half-life at 1 μM: pH 7.4, with Cobicistat 0.5 μM (CYP3A inhibitor), with 0.5 μM Cobicistat (CYP3A inhibitor), read-out: HLM (+Cobi) half-life (t1/2)
Procedure: (§1) The in vitro microsomal stability assay was conducted in duplicate in mouse and human liver microsomal systems, which were supplemented with nicotinamide adenine dinucleotide phosphate (NADPH) as a cofactor. […] The reaction was initiated by addition of 1 mM NADPH, followed by incubation at 37° C. A negative control was performed in parallel in the absence of NADPH to measure any chemical instability or non-NADPH dependent enzymatic degradation for each compound. At various time points (0, 5, 15, 30, and 60 minutes), 1 volume of reaction aliquot was taken and quenched with 3 volumes of acetonitrile containing an appropriate internal standard and 0.1% formic acid. The samples were then vortexed and centrifuged at 15,000 rpm for 5 minutes at 4° C. The supernatants were collected and analyzed by LC-MS/MS to determine the in vitro metabolic half-life (t1/2).

[5] = Microsomal stability assay, mouse liver microsomes; assay type: in vitro ADME; conditions: 1 μM compound, NADPH; for MLM half-life (t1/2): without Cobicistat
Procedure: as §1

[6] = with 0.5 μM Cobicistat (CYP3A inhibitor)

With Cc1[nH]c2ccccc2c1CC(=O)N[C@@H](Cc1ccccc1)c1ncccc1-c1ccccc1 [Example 49, (S)-2-(2-methyl-1H-indol-3-yl)-N-(2-phenyl-1-(3-phenylpyridin-2-yl)ethyl)acetamide] the “% viability at 50 μM” value [1] was 29 ± 12%, the “TSA ΔTm (° C.)” value [2] was 4.5 °C and the EC50 [3] was 2.6 ± 0.4 µM.

With O=C(Cn1ncc2ccccc21)N[C@@H](Cc1ccccc1)c1ncccc1-c1ccccc1 [Example 50, (S)-2-(1H-indazol-1-yl)-N-(2-phenyl-1-(3-phenylpyridin-2-yl)ethyl)acetamide] the “% viability at 50 μM” value [1] was 46 ± 13%, the “TSA ΔTm (° C.)” value [2] was 1.0 °C and the EC50 [3] was 8.8 ± 0.4 µM.

For O=C(Cn1cccn1)N[C@@H](Cc1ccccc1)c1ncccc1-c1ccccc1 [Example 51, (S)—N-(2-phenyl-1-(3-phenylpyridin-2-yl)ethyl)-2-(1H-pyrazol-1-yl)acetamide], the “% viability at 50 μM” value [1] was 102 ± 6%, the “TSA ΔTm (° C.)” value [2] was 1.1 °C and the EC50 [3] was 5.1 ± 0.7 µM.

In the case of Cc1[nH]c2ccccc2c1CC(=O)N[C@@H](Cc1ccccc1)c1nccn1-c1ccccc1 [Example 52, (S)-2-(2-methyl-1H-indol-3-yl)-N-(2-phenyl-1-(1-phenyl-1H-imidazol-2-yl)ethyl)acetamide], the “% viability at 50 μM” value [1] is reported as 78 ± 6%, the “TSA ΔTm (° C.)” value [2] is reported as 3.9 °C and the EC50 [3] is reported as 3.7 ± 0.8 µM.

In the case of Cc1[nH]c2ccccc2c1CC(=O)N[C@@H](Cc1ccccc1)c1nccn1-c1ccc(C#N)cc1 [Example 53, (S)—N-(1-(1-(4-cyanophenyl)-1H-imidazol-2-yl)-2-phenylethyl)-2-(2-methyl-1H-indol-3-yl)acetamide], the “% viability at 50 μM” value [1] is reported as 87 ± 8%, the “TSA ΔTm (° C.)” value [2] is reported as 2.2 °C and the EC50 [3] is reported as 6.6 ± 0.4 µM.

In the case of CN(C(=O)[C@H](Cc1ccccc1)NC(=O)CNC(=O)c1ccccc1)c1ccc(Cl)cc1 [drawing 192], the “HLM half-life (t1/2)” value [4] is reported as 36 min, the half-life at 1 μM [4] is reported as 141 min and the “MLM (+Cobi) half-life (t1/2)” value [5, 6] is reported as 52 min. For the same compound, the “MLM half-life (t1/2)” value [5] was 13 min.

With CN(C(=O)[C@H](Cc1ccccc1)NC(=O)CNC(=O)c1ccccc1)c1cccc(F)c1 [drawing 193] the “HLM half-life (t1/2)” value [4] was 12 min and the “MLM half-life (t1/2)” value [5] was 3.6 min.

For CCN(C(=O)[C@H](Cc1ccccc1)NC(=O)CNC(=O)c1ccccc1)c1ccccc1 [drawing 194], the “HLM half-life (t1/2)” value [4] was 14 min, the half-life at 1 μM [4] was 231 min and the “MLM (+Cobi) half-life (t1/2)” value [5, 6] was 28 min. The “MLM half-life (t1/2)” value [5] was 2.4 min.

In the case of Cc1cn(CC(=O)N[C@@H](Cc2ccccc2)C(=O)N(C)c2ccc(Cl)cc2)c(=O)[nH]c1=O [drawing 195], the “HLM half-life (t1/2)” value [4] is reported as 12 min, the half-life at 1 μM [4] is reported as 1390 min and the “MLM half-life (t1/2)” value [5] is reported as 4.6 min. For the same compound, the half-life at 1 μM ([5]; pH 7.4, with Cobicistat 0.5 μM (CYP3A inhibitor), with 0.5 μM Cobicistat (CYP3A inhibitor), read-out: MLM (+Cobi) half-life (t1/2)) was 385 min.
